# Source: patent US12226401B2, “Molecular genetic approach to treatment and diagnosis of alcohol and drug dependence” (priority 2010, dated 2025)
# System: alcohol dependent individuals
# Assay: Randomized, double-blind, placebo-controlled, 12-week clinical trial of ondansetron vs placebo in alcohol dependent individuals by genotype: drinks per drinking day (DDD)
# Format: in vivo, human
# Details: for Drinks per Drinking Days, Least Squares Mean (Estimated Mean): OND
# Description: Two hundred and seventy eight male and female alcohol dependent individuals were entered into a randomized, double-blind, placebo-controlled, 12-week clinical trial. These individuals were divided into TT vs. […] The polymorphisms in 3''-UTR region of a gene may affect mRNA expression levels by altering their stability. […] Data was transformed to its natural log to correct for skewness. […] In total, ten SNPs in 5HT3a and nine SNPs in 5HT3b genes were analyzed in this study: […]
compound,measurement,setting,value
"Cc1nccn1CC1CCc2c(c3ccccc3n2C)C1=O (stereo not drawn) [ondansetron, 9-methyl-3-[(2-methyl-1H-imidazol-1-yl)methyl]-1,2,3,9-tetrahydrocarbazol-4-one]","Estimate, OND vs. Placebo, drinks per drinking days (DDD)","AA or AC (RS1176719, RS17614942)",−2.83 DDD
same,"Estimate, OND vs. Placebo, drinks per drinking days (DDD)","AG or AC (RS1150226, RS17614942)",−2.12 DDD
same,"Estimate, OND vs. Placebo, drinks per drinking days (DDD)","AG or GG (RS1150226, RS1176713)",−2.43 DDD
same,"Least Squares Mean Difference, Drinks per Drinking Days, OND vs. Placebo",Among Comb (LL + TT or AC or AG),−1.75
same,"Least Squares Mean Difference, Drinks per Drinking Days, Comb vs. Others","Among OND, Comb = LL + TT or AC or AG",−2.21
same,"Least Squares Mean Difference, Drinks per Drinking Days, AG/AA vs. GG","Among OND, RS1150226",−1.91
same,"Least Squares Mean Difference, Drinks per Drinking Days, AC/AA vs. CC","Among OND, RS17614942",−2.13
same,"Least Squares Mean Difference, Drinks per Drinking Days, AC/AA vs. CC","Among OND, model RS17614942 (CC/AA, AC), Table 2G",−2.22
same,"Least Squares Mean Difference, Drinks per Drinking Days, OND vs. Placebo",Among RS1150226 AG/AA,−1.80
same,"Least Squares Mean Difference, Drinks per Drinking Days, OND vs. Placebo",Among RS17614942 AC/AA,−2.51
same,"Least Squares Mean, Drinks per Drinking Days",Comb (LL + TT or AC or AG),4.21
same,"Estimate, OND vs. Placebo, drinks per drinking days (DDD)","GG or AC (RS1176713, RS17614942)",−3.08 DDD
same,"Estimate, OND vs. Placebo, drinks per drinking days (DDD)","LL + AA (5-HTTLPR, RS1176719)",−5.22 DDD
same,"Estimate, OND vs. Placebo, drinks per drinking days (DDD)","LL + AA + AC (5-HTTLPR, RS1176719, RS17614942)",−5.96 DDD
same,"Estimate, OND vs. Placebo, drinks per drinking days (DDD)","LL + AC (5-HTTLPR, RS17614942)",−4.24 DDD
same,"Estimate, OND vs. Placebo, drinks per drinking days (DDD)","LL + AG (5-HTTLPR, RS1150226)",−3.06 DDD
same,"Estimate, OND vs. Placebo, drinks per drinking days (DDD)","LL + AG + AC (5-HTTLPR, RS1150226, RS17614942)",−4.09 DDD
same,"Drinks per Drinking Days, Least Squares Estimated Mean Difference","LL + CT/TT: OND vs. Placebo, simplified model",−1.55
same,"Estimate, OND vs. Placebo, drinks per drinking days (DDD)","LL + GG (5-HTTLPR, RS1176713)",−4.48 DDD
same,"Estimate, OND vs. Placebo, drinks per drinking days (DDD)","LL + TT (5-HTTLPR, RS1042173)",−2.08 DDD
same,"Estimate, OND vs. Placebo, drinks per drinking days (DDD)","LL + TT + AA (5-HTTLPR, RS1042173, RS1176719)",−8.50 DDD
same,"Estimate, OND vs. Placebo, drinks per drinking days (DDD)","LL or AA or AC (5-HTTLPR, RS1176719, RS17614942)",−1.55 DDD
same,"Estimate, OND vs. Placebo, drinks per drinking days (DDD)","LL or AC (5-HTTLPR, RS17614942)",−1.53 DDD
same,"Estimate, OND vs. Placebo, drinks per drinking days (DDD)","LL or AG (5-HTTLPR, RS1150226)",−1.37 DDD
same,"Estimate, OND vs. Placebo, drinks per drinking days (DDD)","LL or AG or AC (5-HTTLPR, RS1150226, RS17614942)",−1.43 DDD
same,"Estimate, OND vs. Placebo, drinks per drinking days (DDD)","LL or GG (5-HTTLPR, RS1176713)",−1.60 DDD
same,"Estimate, OND vs. Placebo, drinks per drinking days (DDD)","LL or GG or AC (5-HTTLPR, RS1176713, RS17614942)",−1.57 DDD
same,"Estimate, OND vs. Placebo, drinks per drinking days (DDD)","LL or TT (5-HTTLPR, RS1042173)",−0.87 DDD
same,"Estimate, OND vs. Placebo, drinks per drinking days (DDD)","LL or TT or AA (5-HTTLPR, RS1042173, RS1176719)",−0.99 DDD
same,"Estimate, OND vs. Placebo, drinks per drinking days (DDD)","LL or TT or AA or AC (5-HTTLPR, RS1042173, RS1176719, RS17614942)",−1.02 DDD
same,"Estimate, OND vs. Placebo, drinks per drinking days (DDD)","LL or TT or AC (5-HTTLPR, RS1042173, RS17614942)",−0.97 DDD
same,"Estimate, OND vs. Placebo, drinks per drinking days (DDD)","LL or TT or AG (5-HTTLPR, RS1042173, RS1150226)",−0.94 DDD
same,"Estimate, OND vs. Placebo, drinks per drinking days (DDD)","LL or TT or AG or AC (5-HTTLPR, RS1042173, RS1150226, RS17614942)",−0.93 DDD
same,"Estimate, OND vs. Placebo, drinks per drinking days (DDD)","LL or TT or GG (5-HTTLPR, RS1042173, RS1176713)",−0.94 DDD
same,"Reduction of DDD by ondansetron, carriers vs non-carriers of genotype combination",LL+AC/AA (5HTTLPR + rs17614942),3.33 sd
same,"Reduction of DDD by ondansetron, carriers vs non-carriers of genotype combination",LL+CT/TT (5HTTLPR + rs4938056),1.82 sd
same,"Drinks per Drinking Days, Least Squares Estimated Mean Difference","OND vs. Placebo, all genotypes, model RS17614942",−0.96
same,"Drinks per Drinking Days, Least Squares Estimated Mean Difference","OND vs. Placebo, all genotypes, model RS17614942 and 5-HTTLPR",−1.13
same,"Drinks per Drinking Days, Least Squares Mean (Estimated Mean)","5-HTTLPR LL, model 5-HTTLPR and RS1062613",4.80
same,"Drinks per Drinking Days, Least Squares Mean (Estimated Mean)","5-HTTLPR LL, model 5-HTTLPR and RS1150226",4.59
same,"Drinks per Drinking Days, Least Squares Mean (Estimated Mean)","5-HTTLPR LL, model RS4938056 and 5-HTTLPR",5.18
same,"Drinks per Drinking Days, Least Squares Mean (Estimated Mean)","5-HTTLPR LL, model RS17614942 and 5-HTTLPR",4.43
same,"Drinks per Drinking Days, Least Squares Mean (Estimated Mean)","5-HTTLPR LS/SS, model 5-HTTLPR and RS1062613",6.19
same,"Drinks per Drinking Days, Least Squares Mean (Estimated Mean)","5-HTTLPR LS/SS, model 5-HTTLPR and RS1150226",5.86
same,"Drinks per Drinking Days, Least Squares Mean (Estimated Mean)","5-HTTLPR LS/SS, model RS4938056 and 5-HTTLPR",6.54
same,"Drinks per Drinking Days, Least Squares Mean (Estimated Mean)","5-HTTLPR LS/SS, model RS17614942 and 5-HTTLPR",5.76
same,"Drinks per Drinking Days, Least Squares Mean (Estimated Mean)","LL + CT/TT, simplified model",4.61
same,"Drinks per Drinking Days, Least Squares Mean (Estimated Mean)","Others (not LL + CT/TT), simplified model",6.25
same,"Drinks per Drinking Days, Least Squares Mean (Estimated Mean)","RS1062613 TC/CC, model 5-HTTLPR and RS1062613",4.98
same,"Drinks per Drinking Days, Least Squares Mean (Estimated Mean)","RS1062613 TC/CC, model RS1062613",5.13
same,"Drinks per Drinking Days, Least Squares Mean (Estimated Mean)","RS1062613 TT, model 5-HTTLPR and RS1062613",6.02
same,"Drinks per Drinking Days, Least Squares Mean (Estimated Mean)","RS1062613 TT, model RS1062613",6.19
same,"Drinks per Drinking Days, Least Squares Mean (Estimated Mean)","RS1150226 AG/AA, model 5-HTTLPR and RS1150226",4.60
same,"Drinks per Drinking Days, Least Squares Mean (Estimated Mean)","RS1150226 AG/AA, model RS1150226",4.58
same,"Drinks per Drinking Days, Least Squares Mean (Estimated Mean)","RS1150226 GG, model 5-HTTLPR and RS1150226",5.85
same,"Drinks per Drinking Days, Least Squares Mean (Estimated Mean)","RS1150226 GG, model RS1150226",6.04
same,"Drinks per Drinking Days, Least Squares Mean (Estimated Mean)","RS4938056 CC, model RS4938056",6.67
same,"Drinks per Drinking Days, Least Squares Mean (Estimated Mean)","RS4938056 CC, model RS4938056 and 5-HTTLPR",6.42
same,"Drinks per Drinking Days, Least Squares Mean (Estimated Mean)","RS4938056 CT/TT, model RS4938056",5.43
same,"Drinks per Drinking Days, Least Squares Mean (Estimated Mean)","RS4938056 CT/TT, model RS4938056 and 5-HTTLPR",5.29
same,"Drinks per Drinking Days, Least Squares Mean (Estimated Mean)","RS17614942 AC/AA, model RS17614942",4.40
same,"Drinks per Drinking Days, Least Squares Mean (Estimated Mean)","RS17614942 AC/AA, model RS17614942 and 5-HTTLPR",4.37
same,"Drinks per Drinking Days, Least Squares Mean (Estimated Mean)","RS17614942 CC, model RS17614942",6.00
same,"Drinks per Drinking Days, Least Squares Mean (Estimated Mean)","RS17614942 CC, model RS17614942 and 5-HTTLPR",5.82
same,"Drinks per Drinking Days, Least Squares Mean (Estimated Mean)","all genotypes, model 5-HTTLPR and RS1062613",5.50
same,"Drinks per Drinking Days, Least Squares Mean (Estimated Mean)","all genotypes, model 5-HTTLPR and RS1150226",5.23
same,"Drinks per Drinking Days, Least Squares Mean (Estimated Mean)","all genotypes, model RS1062613",5.66
same,"Drinks per Drinking Days, Least Squares Mean (Estimated Mean)","all genotypes, model RS1150226",5.31
same,"Drinks per Drinking Days, Least Squares Mean (Estimated Mean)","all genotypes, model RS4938056",6.05
same,"Drinks per Drinking Days, Least Squares Mean (Estimated Mean)","all genotypes, model RS4938056 and 5-HTTLPR",5.86
same,"Drinks per Drinking Days, Least Squares Mean (Estimated Mean)","all genotypes, model RS17614942",5.20
same,"Drinks per Drinking Days, Least Squares Mean (Estimated Mean)","all genotypes, model RS17614942 and 5-HTTLPR",5.09
same,"Drinks per Drinking Days, Least Squares Mean (Estimated Mean)","all genotypes, simplified model, combined genotype LL + CT/TT vs Others",5.43
same,"Least Squares Mean, Drinks per Drinking Days",Others (not LL + TT or AC or AG),6.42
same,"Estimate, OND vs. Placebo, drinks per drinking days (DDD)",RS1042173 (TT),−0.86 DDD
same,"Least Squares Mean, Drinks per Drinking Days","RS1150226 AG (as printed, Table 3F)",6.08
same,"Least Squares Mean, Drinks per Drinking Days",RS1150226 AG/AA,4.20
same,"Least Squares Mean, Drinks per Drinking Days",RS1150226 GG,6.11
same,"Least Squares Mean, Drinks per Drinking Days","RS1150226 GG/AA (as printed, Table 3F)",4.19
same,"Least Squares Mean, Drinks per Drinking Days",RS17614942 AC,3.87
same,"Least Squares Mean, Drinks per Drinking Days",RS17614942 AC/AA,3.90
